Assay results taken from publication PMC10563230, “Unveiling poly(rC)-binding protein 2 as the target protein for curcusone C against prostate cancer: mechanism validation through click chemistry-activity based proteomics profiling approach” (BMC Cancer, 2023).

What was measured:
[1] = tested on: human prostate carcinoma PC-3 cells; test: CCK-8 cytotoxic activity assay, PC-3; format: cell-based; details: CCK-8, 48 h
Method: (§1) Human prostate carcinoma PC-3 cells and human proximal tubular HK-2 cells purchased from Chinese National Collection of Authenticated Cell Cultures were cultured in RPMI 1640 medium containing FBS (10%, Gibco, CA, USA) and Penicillin-Streptomycin (1%, Gibco, CA, USA). The cells were cultured at a concentration of 5% CO2 and a temperature of 37 ℃, and the medium was changed every two days.
(§2) CCK-8 assay was used to evaluate the proliferation and cytotoxicity of Curcusone C and its derivatives. Cells of 100 µL with a concentration of 5000 cells/mL to 8000 cells/mL were inoculated in 96-well plates for culturing 24 h, and the blank well was added with equal volume medium. After cell adhesion, 10 µL Curcusone C solution or its derivatives were added to each well of the experimental groups except the blank well to the final concentration of drug was 1 mM, […] respectively, and 10 µL DMSO (drug solvent) was added to the control well. The liquid was discarded 48 h later, and 100 µL medium and 10 µL CCK-8 reagent (Beyotime, Shanghai, China) were added to each well. After incubation for 0.5 to 1 h, the absorbance valued at 450 nm was measured and the cell inhibition rate or survival rate was calculated. Cell inhibition rate= […].

[2] = tested on: Bax, Bcl-2, caspase-3 and PARP proteins in PC-3 cells; test: Western blot of mitochondrial apoptosis pathway proteins in PC-3 cells; format: cell-based, human; details: increasing concentration
Method: (§3) The culture medium containing PC-3 cells was discarded, lysis buffer was added, and the cells were collected with a scraper. The sample is then transferred to a centrifuge tube and the cells are fully lysed. Centrifuge the tube at 12,000 g and 4 ℃ for 10 min. After taking the supernatant, mix with the protein: protein loading buffer (v/v) = 5:1 ratio, and boil at 95 ℃ for 10 min to fully denaturate the protein. BCA protein concentration assay kit (Beyotime, China) was used to quantify the protein of experimental samples. Equal amounts of protein (30 µg) were loaded onto 7.5-12.5% SDS-PAGE gel. After adding the sample, the target protein was separated at 140 V constant pressure and was transferred under the condition of 250 mA constant current and the highest voltage. The transferred PVDF membrane (Thermo Fisher Scientific, MA, USA) was sealed in 5% skim milk (BIOFRox, Germany) for 2 h. The membrane was incubated in the antibody diluent of the corresponding protein at 4 ℃ overnight in a shaker and washed with TBST (Gibco, USA) for three times. Then it was placed in secondary antibody diluent for incubating 1.5 h at 4 ℃ in a shaker and washed again for three times. Finally, appropriate amount of ECL luminescent solution was taken to infiltrate PVDF membrane for development, and the strip was exposed and recorded.

PCBP2 protein = PCBP2 protein (Homo sapiens, UniProt Q15366); test: SPR binding to immobilized PCBP2 (CM5 chip); details: analyte 31.25–500 µM
Sequence of PCBP2 protein (Q15366 whole entry): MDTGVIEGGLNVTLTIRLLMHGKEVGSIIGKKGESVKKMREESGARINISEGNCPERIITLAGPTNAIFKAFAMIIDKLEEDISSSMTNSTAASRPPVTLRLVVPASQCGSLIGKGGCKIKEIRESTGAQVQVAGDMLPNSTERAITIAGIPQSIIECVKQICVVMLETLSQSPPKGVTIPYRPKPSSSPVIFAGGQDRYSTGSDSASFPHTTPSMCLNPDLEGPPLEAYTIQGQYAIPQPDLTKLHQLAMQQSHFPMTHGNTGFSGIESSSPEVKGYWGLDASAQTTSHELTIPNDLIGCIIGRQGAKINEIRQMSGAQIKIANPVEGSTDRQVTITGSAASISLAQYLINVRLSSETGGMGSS
Method: The PCBP2 protein was first immobilized on the CM5 microarray using […], and then the analyte was run using a multi-cycle method. Briefly, small molecules were diluted to different concentrations with Running Buffer, and injected into channel Fc1-Fc2 at a flow rate of 30 µl/min. The association period was 60 s, and then dissociated for 90 s. The association and dissociation processed in the Running Buffer.

[3] = tested on: PCBP2, FHL3, TGF-β1, phosphorylated Smad2 and phosphorylated Smad7; test: Immunohistochemistry of tumor tissues of nude mice; format: in vivo, Balb/C nude mice
Method: Paraffin sections underwent successively dewaxing to water, antigen repair, blocking of endogenous peroxidase, serum blocking, primary antibody incubation, secondary antibody reaction, DAB color development, counterstaining of nuclei, dehydration and sealing, image acquisition and analysis, and microscopic examination.

PCBP2 [4] = test: DARTS (pronase digestion of PCBP2 in PC-3 protein extract); format: binding, human; details: 100 µM
Method: PC-3 cells protein was extracted, and the protein concentration was adjusted to 5 mg/mL and was packed into 99 µL/tube. Then, 10 mM and 5 mM Curcusone C solution of 1 µL was added to protein mixture of 99 µL and gently shaken at room temperature for 1 h. After the compounds were completely incubated, the samples were divided into one part every 20 µL, and 2 µL pronase solution with a certain concentration was added. The control group was added with 2 µL TNC buffer and incubated at room temperature for 30 min to ensure the same digestion time in each group. Digestion was terminated with 20X protease inhibitor complex and incubated on ice for 10 min. Finally, 6 µL 5X protein loading buffer was added to each sample and boiled at 100 ℃ for 10 min to fully denaturate the protein. The samples were centrifuged at 1100 g and 4 ℃ for 1 min and were performed western blot.

PCBP2 [5] = test: Western blot of PCBP2 in PC-3 cells; format: cell-based, human; details: different concentrations
Method: as §3

[6] = tested on: human proximal tubular HK-2 cells; test: CCK-8 cytotoxic activity assay, HK-2 normal cells; format: cell-based; details: HK-2, 48 h, CCK-8, 48 h
Method: as §1, §2

[7] = tested on: PC-3 subcutaneously transplanted tumor; test: PC-3 subcutaneously transplanted tumor model in nude mice; format: in vivo, Balb/C nude mice; details: for tumor weight: last day of administration, control group 2885.5 ± 432.0 mg
Method: (§4) PC-3 cells in logarithmic growth phase were collected and the total number of cells required was calculated. Cells were re-suspended in a suitable volume of PBS and added to matrigel (PBS: matrigel = 1:1(v/v)) at a concentration of 5 × 10^6 cells/mL for subcutaneous inoculation on the right side of Balb/C nude mice. On day 0, 0.1 mL 5 × 10^6 cells/mL cell suspension (PBS: matrigel = 1:1(v/v)) was subcutaneously inoculated on the right neck and back of each nude mouse except the mice of normal group, to establish PC-3 subcutaneously transplanted tumor model. On day 8 after cell inoculation, the tumor grew to an average volume of 140.3 mm^3. The groups were randomly divided into normal group (Normal), control group (Control), methotrexate group (MTX 4.8 mg/kg), low dose group (C 5 mg/kg), medium dose group (C 10 mg/kg) and high dose group (C 20 mg/kg). Except for 3 mice in the normal group, 6 mice in the other groups were administered twice a week via tail vein (BIW). After 2 weeks of dosing, the dose was changed to once a day (QD). After 2 days of QD administration, tail vein injection was changed to intraperitoneal administration, and QD administration was continued for 5 days. Pharmacodynamic activity was evaluated based on tumor inhibition rate (TGITV) and tolerance was evaluated based on animal weight change and death. At the end of the experiment, all the animals were bled under isoflurane anesthesia and the serum was extracted. The heart, liver, spleen, lung and kidney of each nude mouse were collected and fixed in 4% paraformaldehyde or quick-frozen in liquid nitrogen and stored at -80 ℃ for tissue protein extraction.
(§5) Tissue samples were embedded, sectioned, dewaxed, stained, dehydrated and transparent, and sealed with neutral gum. After drying in a ventilated place, observing and recording under a microscope, the sections were stored at room temperature.
Mouse tumor tissues were fixed with 4% PFA and washed with PBS, and TUNEL staining was performed with TUNEL apoptosis detection kit according to manufacturer’s instructions. Cell nucleus were stained with DAPI, slides were rinsed and imaged with fluorescence microscopy, and finally apoptosis was analyzed with image analyzer.

[8] = Tolerance and organ toxicity in tumor-bearing nude mice (body weight, HE staining); format: in vivo
Method: as §4, §5

Structure (SMILES): C=C(COc1ccc([N+](=O)[O-])cc1)[C@@H](CCC(=O)COc1ccc([N+](=O)[O-])cc1)c1cc2c(c(=O)c(C)c1)C[C@@](C)(O)C2=O [Derivative C-12]
- IC50 [1]: > 20 µM

Structure (SMILES): C=C(COC(C)=O)[C@H]1CCC(O)(CCl)C2C3=C(C[C@@](C)(O)C3=O)C(=O)C(C)=CC21 (stereo partly shown) [Derivative C-8]
- IC50 ([1]; PC-3, 48 h): 9.49 ± 0.17 µM

Structure (SMILES): C=C(C)[C@H]1CCC(O)(CCl)C2C3=C(C[C@@](C)(O)C3=O)C(=O)C(C)=CC21 (stereo partly shown) [Derivative C-2]
- IC50 ([1]; PC-3, 48 h): 6.4 ± 0.38 µM

Structure (SMILES): C=C1CC[C@H](C(=C)C)[C@H]2C=C(C)C(=O)C3=C(C(=O)[C@](C)(O)C3)[C@H]12 [Curcusone C]
- level of Bcl-2 in PC-3 cells [2]: decreased gradually
- relative expression levels of Bax, cleaved caspase-3 and cleaved PARP in PC-3 cells [2]: increased gradually
- IC50 ([1]; PC-3, 48 h): ~3.24 µM
- Kd (PCBP2 protein): 3150 µM
- changes of TGF-β1, P-Smad2 and P-smad7 proteins in tumor tissues ([3]; IHC): downward trend
- content of FHL3 protein in tumor tissues ([3]; IHC, 20 mg/kg): higher than that in Control group
- expression of PCBP2 protein in tumor tissues ([3]; IHC, 5, 10, 20 mg/kg): decreased with the increase of drug concentration
- amount of enzymolysis by pronase of PCBP2 (PCBP2 [4]): lower than that of control group
- relative content of PCBP2 in PC-3 cells (PCBP2 [5]): decreased with the increase of drug concentration
- IC50 [6]: > 20 µM
- TUNEL apoptotic signal in tumor tissue ([7]; 5 mg/kg): no apoptotic cell signal
- tumor inhibition rate ([7]; 5 mg/kg): 18%
- tumor weight ([7]; 5 mg/kg): 2356.7 ± 445.7 mg
- TUNEL apoptotic signal in tumor tissue ([7]; 10 mg/kg): red marker signal
- tumor inhibition rate ([7]; 10 mg/kg): 33%
- tumor weight ([7]; 10 mg/kg): 1925.6 ± 242.1 mg
- HE staining of tumor tissue ([7]; 20 mg/kg): nuclear pyknosis and lysis
- TUNEL apoptotic signal in tumor tissue ([7]; 20 mg/kg): most obvious apoptotic signal
- tumor inhibition rate ([7]; 20 mg/kg): about 39%
- tumor weight ([7]; 20 mg/kg): 1759.6 ± 448.7 mg
- HE staining of lung tissue ([8]; 20 mg/kg): no interstitial thickening of lung tissue
- body weight of nude mice ([8]; 20 mg/kg): weight loss due to intolerance at the initial stage of drug administration
- HE staining of renal tissue ([8]; after administration of Curcusone C): no obvious abnormality
- HE staining of heart, liver, spleen, lung and kidney ([8]; compared with the normal group): no significant changes

Structure (SMILES): C=C(C)[C@@H](CCC(=O)CN(CC)CC)c1cc2c(c(=O)c(C)c1)C[C@@](C)(O)C2=O [Derivative C-11]
- IC50 ([1]; PC-3, 48 h): > 20 µM

Structure (SMILES): C=C(CO)[C@H]1CCC(O)(CCl)C2C3=C(C[C@@](C)(O)C3=O)C(=O)C(C)=CC21 (stereo partly shown) [Derivative C-7]
- IC50 ([1]; PC-3, 48 h): 16.3 ± 3.25 µM

Structure (SMILES): C=C1CC[C@H](C(=C)C)C2C=C(C)C(=O)C3=C(C(=O)[C@](C)(Cl)C3)C12 (stereo partly shown) [Derivative C-1]
- IC50 ([1]; PC-3, 48 h): 3.74 ± 0.4 µM

Structure (SMILES): C=C(COC(=O)/C=C/C=C/C)[C@H]1CCC(O)(CCl)C2C3=C(C[C@@](C)(O)C3=O)C(=O)C(C)=CC21 (stereo partly shown) [Derivative C-6]
- IC50 ([1]; PC-3, 48 h): 1.81 ± 0.18 µM

Structure (SMILES): C#CCCCC(=O)O[C@]1(C)CC2=C(C1=O)C1C(=C)CC[C@H](C(=C)C)C1C=C(C)C2=O (stereo partly shown) [Positive probes]
- IC50 ([1]; PC-3, 48 h): 7.34 ± 0.2 µM

Structure (SMILES): C=C(COC(=O)CC(=O)OC)[C@H]1CCC(O)(CCl)C2C3=C(C[C@@](C)(O)C3=O)C(=O)C(C)=CC21 (stereo partly shown) [Derivative C-9]
- IC50 ([1]; PC-3, 48 h): 5.97 ± 1.16 µM

Structure (SMILES): C=C(CCl)[C@H]1CCC(O)(CCl)C2C3=C(C[C@@](C)(O)C3=O)C(=O)C(C)=CC21 (stereo partly shown) [Derivative C-13]
- IC50 [1]: 2.96 ± 0.37 µM

Structure (SMILES): C=C(C=O)[C@H]1CCC(O)(CCl)C2C3=C(C[C@@](C)(O)C3=O)C(=O)C(C)=CC21 (stereo partly shown) [Derivative C-4]
- IC50 ([1]; PC-3, 48 h): 2.35 ± 0.37 µM

Structure (SMILES): C=C(C)C(=O)OCC(=C)[C@H]1CCC(O)(CCl)C2C3=C(C[C@@](C)(O)C3=O)C(=O)C(C)=CC21 (stereo partly shown) [Derivative C-5]
- IC50 ([1]; PC-3, 48 h): 2.05 ± 0.96 µM

Structure (SMILES): C=C(C)[C@@H](CCC(=O)COC(C)=O)c1cc2c(c(=O)c(C)c1)C[C@@](C)(O)C2=O [Derivative C-10]
- IC50 ([1]; PC-3, 48 h): > 20 µM

Structure (SMILES): C=C(C)[C@H]1CCC(O)(CI)C2C3=C(C[C@@](C)(O)C3=O)C(=O)C(C)=CC21 (stereo partly shown) [Derivative C-3]
- IC50 ([1]; PC-3, 48 h): 10.3 ± 0.58 µM

Structure (SMILES): CN(Cc1cnc2nc(N)nc(N)c2n1)c1ccc(C(=O)N[C@@H](CCC(=O)O)C(=O)O)cc1 [Methotrexate, reference compound]
- IC50 ([1]; PC-3, 48 h): 0.89 ± 0.22 µM
- IC50 [6]: ~3.21 µM
- HE staining of tumor tissue ([7]; 4.8 mg/kg): nuclear pyknosis and lysis
- TUNEL apoptotic signal in tumor tissue ([7]; 4.8 mg/kg): most obvious apoptotic signal
- tumor inhibition rate ([7]; 4.8 mg/kg): 48%
- tumor weight ([7]; 4.8 mg/kg): 1503.4 ± 243.0 mg
- HE staining of kidney (glomerulus in the renal cortex) ([8]; 4.8 mg/kg): severe pyknosis
- HE staining of lung tissue ([8]; 4.8 mg/kg): significant pulmonary interstitial thickening and pneumonic pathological manifestations
